Measurements reported in patent publication US7737112B2, “Composition for enzyme inhibition” (Onyx Therapeutics, Inc., priority 2004, dated 2010).

What was measured:
Format in all cases: physicochemical
[1] = solubility of peptide epoxy ketones in cyclodextrin formulations
Method: 100 μg/mL peptide (b) was formulated in an aqueous solution containing 130 mg/mL hydroxypropyl beta cyclodextrin (HPBCD) and ca. 0.9% (w/v) NaCl.
2 mg/mL peptide (a) was formulated in an aqueous solution containing 10% (w/v) SBECD and 10 mM citric acid adjusted to pH 3.5 with 0.1 M aqueous sodium hydroxide.
(§1) Appropriate masses of SBECD and citric acid were added to a volume of WFI corresponding to approximately 75% that of the final formulation. This mixture was then stirred at room temperature until complete dissolution of the SBECD and citric acid was effected. An appropriate mass of peptide (a) was then added and the resulting mixture stirred at room temperature until the added peptide (a) was dissolved. A pH electrode was then immersed in the solution and, with rapid stirring, the pH was adjusted to 3.5 by slow addition of 0.1 M sodium hydroxide in WFI; slow addition of the sodium hydroxide solution with adequate stirring was necessary to prevent precipitation of peptide (a). With rapid stirring, the resulting solution was then diluted with WFI to a final peptide (a) concentration of 2.0 mg/mL. This solution was then sterile filtered to yield the final formulation.
Several other final pH values were used for the peptide (a)/SBECD formulations.

[2] = reconstitution of lyophilized (3x) peptide (a)/SBECD formulation
Method: 6 mg/mL peptide (a) was formulated in an aqueous solution containing 30% (w/v) SBECD and 30 mM citric acid adjusted to pH 3.5 with 0.5 M aqueous sodium hydroxide.
as §1, with “70%” for “approximately 75%”, “0.5” for “0.1”, “6.0” for “2.0”
The vials containing product were loaded onto the shelves and the temperature set for 5° C. for 2 hrs. […]
Reconstitution was effected by addition of 9.75 mL of WFI, USP to produce the desired fill volume within the vial of 10.5 mL. […] The pH measured was 3.5±0.1.

[3] = room temperature stability of reconstituted peptide (b)/HPBCD drug product; settings: 100 μg/mL peptide (b)/HPBCD solid reconstituted in aqueous 0.9% (w/v) NaCl, sterile filtered
Method: The desired quantity of peptide (b) was weighed and dissolved in absolute ethanol at a concentration of 1 mg/mL. For each 1 mg of peptide (b) to be formulated, 1.3 g HPBCD was dissolved in absolute ethanol at a concentration of 10 mg/mL. This ethanol/HPBCD solution was then combined with the ethanol/peptide (b) solution, stirred 5 minutes at room temperature and then evaporated under reduced pressure (rotovapped) to yield a white solid. This solid was placed under high vacuum (ca. 1 mTorr) for 24 hrs, pulverized and then placed under high vacuum (ca. 1 mTorr) for another 4 hrs to yield dry solid. The final formulation was prepared by dissolving this solid drug product to a final concentration of 100 μg peptide (b)/mL solid drug product in ice cold USP grade aqueous 0.9% (w/v) NaCl followed by sterile filtration. Room temperature stability of the reconstituted drug product was ca. 12 hrs.

Row | solubility when formulated with a cyclodextrin [1] | time for dissolution on reconstitution ([2]; lyophilized 6 mg/mL peptide (a), 30% (w/v) SBECD, 30 mM citric acid pH 3.5, 9.75 mL WFI added, fill volume 10.5 mL) | pH measured after reconstitution ([2]; lyophilized peptide (a)/SBECD/citrate formulation reconstituted with WFI) | state of the solution at room temperature ([1]; 100 μg/mL in aqueous 130 mg/mL HPBCD, ca. 0.9% (w/v) NaCl, could not be made by simply dissolving) | Room temperature stability of the reconstituted drug product [3] | SMILES
1 | significantly enhanced | less than 2 minutes | 3.5±0.1 |  |  | CC(C)C[C@H](NC(=O)[C@H](CCc1ccccc1)NC(=O)CN1CCOCC1)C(=O)N[C@@H](Cc1ccccc1)C(=O)N[C@@H](CC(C)C)C(=O)[C@@]1(C)CO1 [peptide (a)]
2 | significantly enhanced |  |  | supersaturated (metastable) | ca. 12 hrs | CC(=O)N[C@@H](CCc1ccccc1)C(=O)N[C@@H](CC(C)C)C(=O)N[C@@H](Cc1ccccc1)C(=O)N[C@@H](CC(C)C)C(=O)[C@@]1(C)CO1 [peptide (b)]
